# Measurements reported in patent US10071074B2, “Thieno-indole moieties and methods of treating using the same” (NERVIANO MEDICAL SCIENCES S.R.L., priority 2012, dated 2018).
# Counter-ions that a name gives are not always drawn.
# Target: cathepsin B (Homo sapiens, UniProt P07858)
# Experiment: Release of a drug moiety from a conjugate in presence of cathepsin
# Assay type: biochemical
# Conditions: 0.2 unit cathepsin B, sodium acetate buffer pH 5.5, 1 mM Cys, 2 hours at 40° C., HPLC ESI-MS analysis
# Experimental: The conjugate A1 was incubated with 0.2 unit of cathepsin B in sodium acetate buffer pH 5.5 and 1 mM Cys for 2 hours at 40° C.
# Disappearance of the conjugate A1 and release of the corresponding compound of formula (II), i.e. compd. 37, as well as of its precursor A3, confirms the breaking of the Z peptidic linker of the conjugate.
row,SMILES,release of the compound of formula (II) (compd. 37) from the conjugate
1,Cc1csc2c(OC(=O)N(C)CCN(C)C(=O)OCc3ccc(NC(=O)[C@H](CCCNC(N)=O)NC(=O)[C@@H](NC(=O)CCCCCN4C(=O)CC(SC[C@H](N)C(=O)O)C4=O)C(C)C)cc3)cc3c(c12)[C@H](CCl)CN3C(=O)c1cc2cc(OCCN3CCCC3)ccc2[nH]1 (stereo partly shown) [conjugate A1],Complete release

# Test system: A2780 human ovarian cancer cells
# Experiment: In vitro cell proliferation assay (CellTiter-Glo)
# Assay type: cell-based
# Conditions: A2780 human ovarian cancer cells, 72 h treatment, CellTiter-Glo; read-out: IC50 value
# Experimental: A2780 human ovarian and MCF7 human breast cancer cells (1250 cells/well) were seeded in white 384 well-plates in complete medium (RPMI1640 or EMEM plus 10% Fetal bovine serum) and treated with compounds dissolved in 0.1% DMSO, 24 h after seeding. The cells were incubated at 37° C. and 5% CO2 and after 72 h the plates were processed using CellTiter-Glo assay (Promega) following the manufacturer's instruction.
# CellTiter-Glo is a homogenous method based on the quantification of the ATP present, an indicator of metabolitically active cells. ATP is quantified using a system based on luciferase and D-luciferin resulting into light generation. The luminescent signal is proportional to the number of cells present in culture.
# Briefly, 25 μL/well of reagent solution are added to each well and after 5 minutes shaking microplates are read by a luminometer. The luminescent signal is proportional to the number of cells present in culture.
row,SMILES,IC50
1,"Cc1csc2c1[C@@]13C[C@@H]1CN(C(=O)c1cc4cc(NC(=O)c5cc6cc(NC(=O)OC(C)(C)C)ccc6[nH]5)ccc4[nH]1)C3=CC2=O [compound 20, tert-butyl {2-[(2-{[(3bR,4aS)-3-methyl-8-oxo-4a,5-dihydro-4H-cyclopropa[c]thieno[3,2-e]indol-6(8H)-yl]carbonyl}-1H-indol-5-yl)carbamoyl]-1H-indol-5-yl}carbamate]",< 0.1 nM
2,"Cc1csc2c(O)cc3c(c12)[C@H](CCl)CN3C(=O)c1cc2cc(NC(=O)c3cc4cc(OCCN5CCCC5)ccc4[nH]3)ccc2[nH]1 [compound 17, N-(2-{[(8S)-8-(chloromethyl)-4-hydroxy-1-methyl-7,8-dihydro-6H-thieno[3,2-e]indol-6-yl]carbonyl}-1H-indol-5-yl)-5-[2-(pyrrolidin-1-yl)ethoxy]-1H-indole-2-carboxamide]",< 0.1 nM
3,"Cc1csc2c1[C@@]13C[C@@H]1CN(C(=O)/C=C/c1c[nH]c4ncccc14)C3=CC2=O [compound 8, (3bR,4aS)-3-methyl-6-[(2E)-3-(1H-pyrrolo[2,3-b]pyridin-3-yl)prop-2-enoyl]-4,4a,5,6-tetrahydro-8H-cyclopropa[c]thieno[3,2-e]indol-8-one]",< 0.01 nM
4,"Cc1csc2c1[C@@]13C[C@@H]1CN(C(=O)c1ccc4c(NC(=O)c5ccc6cc[nH]c6c5)c[nH]c4c1)C3=CC2=O [Compd. 5, N-(6-{[(3bR,4aS)-3-methyl-8-oxo-4a,5-dihydro-4H-cyclopropa[c]thieno[3,2-e]indol-6(8H)-yl]carbonyl}-1H-indol-3-yl)-1H-indole-6-carboxamide]",< 50 nM
5,"Cc1csc2c1[C@]13C[C@H]1CN(C(=O)c1cc(NC(=O)c4cc(NC(=O)c5cc([N+](=O)[O-])cn5C)cn4C)cn1C)C3=CC2=O [compound 6, 1-methyl-N-(1-methyl-5-{[(3bS,4aR)-3-methyl-8-oxo-4a,5-dihydro-4H-cyclopropa[c]thieno[3,2-e]indol-6(8H)-yl]carbonyl}-1H-pyrrol-3-yl)-4-4{[(1-methyl-4-nitro-1H-pyrrol-2-yl)carbonyl]amino}-1H-pyrrole-2-carboxamide]",< 50 nM
6,Cc1csc2c(O)cc3c(c12)[C@H](CCl)CN3C(=O)c1ccc2c(NC(=O)c3ccc4cc[nH]c4c3)c[nH]c2c1 [Compd. 1],< 50 nM
7,Cc1csc2c(O)cc3c(c12)[C@H](CCl)CN3C(=O)c1cc2cc(NC(=O)c3cc4cc(NC(=O)OC(C)(C)C)ccc4[nH]3)ccc2[nH]1 [Compd. 18],< 0.01 nM
8,"Cc1csc2c1[C@]13C[C@H]1CN(C(=O)/C=C/c1c[nH]c4ncccc14)C3=CC2=O [Compd. 7, (3bS,4aR)-3-methyl-6-[(2E)-3-(1H-pyrrolo[2,3-b]pyridin-3-yl)prop-2-enoyl]-4,4a,5,6-tetrahydro-8H-cyclopropa[c]thieno[3,2-e]indo-8-one]",< 50 nM
9,"Cc1csc2c(O)cc3c(c12)[C@H](CCl)CN3C(=O)c1cc2cc(OCCN3CCCC3)ccc2[nH]1 [Compd. 37, [(8S)-8-(chloromethyl)-4-hydroxy-1-methyl-7,8-dihydro-6H-thieno[3,2-e]indol-6-yl]{5-[2-(pyrrolidin-1-yl)ethoxy]-1H-indol-2-yl}methanone hydrochloride]",< 0.01 nM
10,"Cc1csc2c1[C@]13C[C@H]1CN(C(=O)Nc1cc(C(=O)Nc4cc(C(=O)Nc5cc(C(=O)NCCC(N)=O)n(C)c5)n(C)c4)n(C)c1)C3=CC2=O [compound 9, (3bS,4aR)-N-(5-{[5-({5-[(3-amino-3-oxopropyl)carbamoyl]-1-methyl-1H-pyrrol-3-yl}carbamoyl)-1-methyl-1H-pyrrol-3-yl]carbamoyl}-1-methyl-1H-pyrrol-3-yl)-3-methyl-8-oxo-4a,5-dihydro-4H-cyclopropa[c]thieno[3,2-e]indole-6(8H)-carboxamide]",< 50 nM

# Same assay, conditions: Homo sapiens, A2780, 72 h, read-out: IC50 value
row,SMILES,IC50
1,"Cc1csc2c(OC(=O)N3CCN(C)CC3)cc3c(c12)[C@H](CCl)CN3C(=O)c1cc2cc(NC(=O)c3cc4cc(NC(=O)OC(C)(C)C)ccc4[nH]3)ccc2[nH]1 [Compd. 22, (8S)-6-({5-[({5-[(tert-butoxycarbonyl)amino]-1H-indol-2-yl}carbonyl)amino]-1H-indol-2-yl}carbonyl)-8-(chloromethyl)-1-methyl-7,8-dihydro-6H-thieno[3,2-e]indol-4-yl 4-methylpiperazine-1-carboxylate]",< 0.1 nM
2,"Cc1csc2c(OC(=O)N3CCN(C)CC3)cc3c(c12)[C@H](CCl)CN3C(=O)c1cc2cc(NC(=O)c3cc4cc(N)ccc4[nH]3)ccc2[nH]1 [compound 23, (8S)-6-[(5-{[(5-amino-1H-indol-2-yl)carbonyl]amino}-1H-indo-2-yl)carbonyl]-8-(chloromethyl)-1-methyl-7,8-dihydro-6H-thieno[3,2-e]indol-4-yl 4-methylpiperazine-1-carboxylate hydrochloride]",< 50 nM
